What was measured:
[1] = tested on: SNARE complex; test: evONC model: SNARE complex assay (native PAGE); format: in vivo, C57BL/6J mice; settings: evONC T24; JGRi1 50, 250, 500 μM, sJGRi1 500 μM; one drop daily for 6 days; n = 6
Description: (§1) Animals were then euthanized via beheading.
The modulation SNARE complex assembly by JGRi1 was evaluated via native PAGE. Briefly, samples were loaded using a non-denaturizing loading buffer (0.5 M Tris-HCl, pH 6.8, 15% v/v glycerol, and 1% v/v bromophenol blue). Samples were then left non-boiled to preserve protein-protein interaction, separated onto polyacrylamide gels, and then blotted onto nitrocellulose membranes. The immunoreactive bands were identified by using an antibody against STX1A, which is a core component of SNARE complexes. Bands starting from approximately 66 kDa were quantified as an indicator of the SNARE complex assembly upon treatment. β-tubulin was used as the loading control for quantification.

[2] = tested on: retinal ganglion cells (RGCs); test: Ex vivo optic nerve cut (evONC) model: RGC viability, apoptosis, retinal cytoarchitecture; format: in vivo, C57BL/6J mice; settings: evONC T24, JGRi1 50, 250, 500 μM, sJGRi1 500 μM, n = 4
Description: as §1
(§2) Western blots were quantified by densitometry using ImageJ software.
The enucleated eyes were fixed in 4% paraformaldehyde solution overnight at 4 °C. Then, they were incubated in a 30% sucrose-in-PBS solution overnight, and finally, they were embedded in an optimal cutting temperature (OCT, Sigma, St. Louis, MO, USA) compound. Eyes were cut at a thickness of 20 μm. For reliability, the sections containing the optic nerve were utilized, and in each eye, at least five discontinuous sections were analyzed. For histological examination, cryosections were stained in Mayer’s Hematoxylin Solution (Merck, Germany), rinsed in tap water, then counterstained using Eosin Y alcoholic solution (Merck, Germany). Sections were mounted on coverslips with Eukitt (Merck, Germany), and observed under a light-transmission microscope (Nikon) with 40X magnification.
(§3) Fluorescence intensity was quantified by using ImageJ software.

[3] = tested on: microglia (IBA1); test: NMDA injection model: microglial infiltration (IBA1 immunofluorescence); format: in vivo, C57BL/6J mice; settings: intravitreal NMDA; eye drops 250 μM daily; n = 5
From the text: as §3

[4] = tested on: JNK2; test: NMDA injection model: JNK2 immunofluorescence; format: in vivo, C57BL/6J mice; settings: intravitreal NMDA; eye drops 250 μM daily; n = 4
From the text: as §3

[5] = tested on: STX1A; settings: evONC T24; JGRi1 50, 250, 500 μM, sJGRi1 500 μM; one drop daily for 6 days; n = 5
Description: Mice were either left untreated or treated for 6 days with a single drop per day of JGRi1 dissolved into a balanced saline solution (BSS) buffer at different concentrations (50 μM, 250 μM, 500 μM). A total volume of 5 μL of JGRi1 solution was applied directly onto the cornea. Treated animals were kept immobilized and under observation for 1 minute to ensure proper peptide penetration within the eye. Animals were then euthanized via beheading. A scrambled version of the peptide (sJGRi1) at a concentration of 500 μM was included as a control. Subsequently, the optic nerve was cut, and the eyes were harvested according to our previously established protocol [25, 26]. The extracted eyes were kept in phosphate-buffered salt (PBS; Capricorn Scientifics, Germany) at 4 °C for 24 hours, then the retinas were dissected and processed accordingly.
Retinal cryosections were permeabilized using 0.5% Tryton-X (Merck, Germany) in PBS (Capricorn Scientifics, Germany) solution for 5 minutes. Then, blocked (0.1 M glycine, 2% w/v bovine serum albumin, 2% v/v fetal calf serum, 0.1% v/v Tryton-X) for 1 hour to avoid non-specific protein interactions. The primary antibody was diluted in the same blocking solution and held overnight at 4 °C. […] Fluorescence intensity was quantified by using ImageJ software.

[6] = tested on: retinal ganglion cells (RGCs); test: NMDA injection model: RGC viability, apoptosis, cytoarchitecture, CTB-488 transport; format: in vivo, C57BL/6J mice
[7] = tested on: L-glutamate; test: NMDA injection model: retinal and synaptic glutamate immunoreactivity; format: in vivo, C57BL/6J mice; settings: intravitreal NMDA; eye drops 250 μM daily from one day prior to NMDA through follow-up; n = 3
Description: as §3
(§4) Co-localization between fluorescent signals in acquired images was expressed using Pearson’s score, which describes the correlation of the intensity distribution between two distinct fluorescent signals. The analysis was carried out using the “JACOP” plug-in available for the ImageJ software. At least 10 different fields per condition were utilized for the quantification.

[8] = tested on: A2 amacrine cells and rod bipolar cells (PROX1-positive); test: evONC model: PROX1-positive cells in the INL; format: in vivo, C57BL/6J mice; settings: evONC T24; JGRi1 50, 250, 500 μM, sJGRi1 500 μM; one drop daily for 6 days; n = 3
From the text: as §1, §3

[9] = molecular target: T1, JNK2-STX1A interaction (Mus musculus, UniProt Q9WTU6); test: evONC model: JNK2-STX1A co-localization (Pearson's analysis); format: in vivo, C57BL/6J mice; settings: evONC T24; JGRi1 50, 250, 500 μM, sJGRi1 500 μM; one drop daily for 6 days; n = 5
T1 construct: from tissue; host or cells: retinal cryosections of C57BL/6J mice
Description: as §1, §3, §4

[10] = tested on: JNK2; test: evONC model: JNK2 expression (immunofluorescence, immunoblot); format: in vivo, C57BL/6J mice; settings: evONC T24; 500 μM eye drops (JGRi1 or sJGRi1), one drop daily for 6 days; n = 5
From the text: as §1, §2, §3

RISEQLSNIEEGQE [sJGRi1, control]
SNARE complex formation (STX1A signal from about 66 kDa, non-boiled samples, vs β-TUB) [1]: did not produce any effect on SNARE complex formation | RBPMS-positive cells in the GCL (immunofluorescence), RGC viability ([2]; one drop daily for 6 days before evONC): failed to rescue RGC viability upon evONC | RBPMS expression (immunoblot, densitometry vs β-TUB) ([2]; one drop daily for 6 days): did not produce any protective effect on RGC viability in comparison to the active peptide | IBA1 immunoreactivity (microglial infiltration) [3]: no reduction was seen upon treatment with sJGRi1 | JNK2 immunoreactivity (immunofluorescence) [4]: did not prevent the NMDA-induced increase in JNK2 expression in the inner retina | STX1A level (immunofluorescence) [5]: does not have any effect on JNK2 nor STX1A expression at T24 | RBPMS-positive cells (immunofluorescence), RGC viability ([6]; intravitreal NMDA 250 μM, 2 μL, eye drops 250 μM, 4 µL daily, from 24 hours prior to NMDA through the 4-week study period, n = 4): had no effect on either RGC viability or apoptosis | retinal cytoarchitecture (hematoxylin/Eosin staining) ([6]; intravitreal NMDA, eye drops 250 μM daily from one day prior to NMDA through follow-up, n = 3): failed to do so | c-CASP3 immunoreactivity / c-CASP3-positive cells, apoptosis ([6]; intravitreal NMDA, eye drops 250 μM daily from one day prior to NMDA through follow-up, n = 4): had no effect on either RGC viability or apoptosis | uptake and transport of the neural tracer CTB-488 in RGCs (mean fluorescence intensity) ([6]; intravitreal NMDA, eye drops 250 μM daily, CTB-488 1 µL intravitreal before sacrifice, n = 5): diminished CTB uptake and transport in RGCs | L-glutamate immunofluorescence in retinal tissue [7]: had no effect | number of PROX1-positive cells in the INL [8]: did not produce any protective effect on PROX1-positive cell number | JNK2-STX1A co-localization (co-immunofluorescence, Pearson's analysis) [9]: produced an even more marked co-localization between JNK2 and STX1A | JNK2 immunoreactivity (immunofluorescence) [10]: does not have any effect on JNK2 nor STX1A expression at T24

From paper PMC13194685 (Cell Death & Disease, 2026)
